From article PMC6695453, “Peptide translocation by the lysosomal ABC transporter TAPL is regulated by coupling efficiency and activation energy” (Scientific Reports, 2019)
Bridge positions count the residues as written; N and C are the ends. Ends that are not written are not given here. Peptide text beside a SMILES is read from it. I, II: the chains in the order shown.

What was measured:
[1] = biological target: T1, TAPL (Homo sapiens, UniProt Q9NP78); test: Peptide transport into TAPL proteoliposomes; assay type: biochemical; settings: 15 min, 37 °C
T1 construct: Human coreTAPL (Q9NP78 UniProt, amino acid 143–766) fused C-terminally to mVenus; made in house; host or cells: Pichia pastoris SMD1168-His+
T1 sequence (Q9NP78 143-766): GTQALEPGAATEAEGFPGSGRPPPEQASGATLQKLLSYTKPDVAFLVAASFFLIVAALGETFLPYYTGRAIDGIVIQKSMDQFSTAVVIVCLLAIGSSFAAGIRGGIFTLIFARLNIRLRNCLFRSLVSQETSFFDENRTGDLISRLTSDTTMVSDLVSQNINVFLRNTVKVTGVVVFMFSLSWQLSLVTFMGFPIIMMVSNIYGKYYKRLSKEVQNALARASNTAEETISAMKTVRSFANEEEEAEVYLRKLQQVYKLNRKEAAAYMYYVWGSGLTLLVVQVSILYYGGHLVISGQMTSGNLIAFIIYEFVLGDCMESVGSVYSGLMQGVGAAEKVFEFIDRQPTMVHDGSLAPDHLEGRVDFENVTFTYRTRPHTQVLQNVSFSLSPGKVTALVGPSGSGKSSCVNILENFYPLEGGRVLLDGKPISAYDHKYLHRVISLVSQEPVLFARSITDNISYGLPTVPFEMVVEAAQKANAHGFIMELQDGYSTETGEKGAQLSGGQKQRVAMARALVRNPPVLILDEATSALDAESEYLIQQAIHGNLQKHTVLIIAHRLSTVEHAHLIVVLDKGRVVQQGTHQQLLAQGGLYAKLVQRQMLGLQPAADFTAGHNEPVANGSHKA
Procedure: (A) Proteoliposomes (0.5 mg/ml lipids) were incubated with 10 µM of 9-mer^FL peptide and 3 mM ATP, 3 mM ADP, without any nucleotide (−) or with 3 mM ATP in the presence of ortho-vanadate (Vi, 500 µM). […] […] Transport was performed in triplicates with error bars indicating SD.
CoreTAPL fused C-terminally to mVenus was produced in P. pastoris by large scale expression in a 7.5 liter Labfors4 reactor (Infors HT, Einsbach, Germany) by fed batch method and cell pellets were stored at −80 °C[14],[44]. Core[…] fused C-terminally to mVenus was produced in P. pastoris in Erlenmeyer flasks. TmrAB from T. thermophilus was expressed in Escherichia coli and cell pellets were stored at −80 °C[30]. CoreTAPL and TmrAB were purified and reconstituted (40:1 (wt/wt) lipid to protein) as described into unilamellar liposomes composed of E. coli polar lipids and DOPC (7:3 (wt/wt); Avanti Polar Lipids), which were ultrasonicated, five times frozen and thawed and extruded through a 400 nm polycarbonate filter (Avestin, Mannheim, Germany)[13],[14],[30]. Proteoliposomes were snap frozen in liquid nitrogen and stored at −80 °C. […] Concentration of coreTAPL and core[…] was determined by specific absorption of mVenus (ε515 = 45.950 M^−1cm^−1). For calculation of TmrAB concentration ε280 = 159.630 M^−1cm^−1 was applied.

[2] = biological target: T1, TAPL; test: NTP dependent peptide transport by TAPL; assay type: biochemical; settings: 37 °C
Procedure: Subsequently, we performed Michaelis-Menten kinetics of 9-mer peptide (100 µM) transport using increasing ATP and GTP concentrations. […] Additionally, we quantified the nucleotide hydrolysis kinetics of ATP and GTP in the presence and absence of the 9-mer peptide. […] Moreover, we assume a subtle difference in the cross-talk between the nucleotide binding domain and the transmembrane domain, which is caused by the type of purine base.
(A) NTP dependent peptide transport was performed with 9-mer^FL peptide (100 µM). (B) NTP hydrolysis was analyzed in the presence of 9-mer peptide (100 µM) by radioactive based assay. Experiments were performed in triplicates, error bars indicate SD.

[3] = tested on: Pdr5; settings: cited from earlier work
Text: Both nucleotides show the same Km and kcat values in respect of NTP hydrolysis. […] NTP dependent transport was found also for other ABC transporters. […] The full-length ABC transport Pdr5 from yeast hydrolyzes GTP and even UTP, but ...

[4] = biological target: T1, TAPL; test: NTP hydrolysis by TAPL, malachite green based assay; assay type: biochemical
Procedure: Kinetics were recorded under steady-state conditions in which peptide accumulation in proteoliposomes is far below saturation (Figs S2,S5).
ATP hydrolysis was determined by malachite green based assay in the absence or presence of 100 µM peptide (filled bar) or ortho-vanadate (500 µM, white bar) (A) or with increasing peptide concentrations (B). Hydrolysis rates of 16-mer and 18-mer peptide were fitted with equation 6. IC50 values, Hill coefficients and kcat are depicted in Table 1. […] All experiments were performed in triplicates, error bars indicate SD.
The reaction was started by the addition of NTP. Background and autohydrolysis were determined with 500 µM ortho-vanadate or in the absence of protein, respectively. Hydrolysis was stopped by the addition of 20 mM H2SO4, supplemented with malachite green solution (3 mM malachite green, 0.2% (v/v) Tween 20, 1.5% (w/v) ammoniummolybdate) and absorption was detected after 10 min incubation at room temperature at 620 nm using a microplate reader (CLARIOstar, BMG LABTECH). IC50 values for peptides were determined by6 v=vmin+vmax−vmin/1+10^(LOGIC50−[I])⋅n where v represents the peptide inhibitor [I] dependent hydrolysis rate, vmax the maximal hydrolysis rate in the absence of peptide, vmin the minimal hydrolysis rate at saturating peptide concentrations and n the Hill slope. IC50 represents the half maximal inhibitory peptide concentration.

[5] = tested on: Nc1nc2c(ncn2[C@@H]2O[C@H](COP(=O)(O)OP(=O)(O)OP(=O)(O)O)[C@@H](O)[C@H]2O)c(=O)[nH]1; test: purified protein, by the assay type; settings: other: 68 °C, 10 min, 9-mer^FL peptide (30 µM), triplicates, SD
[6] = tested on: Nc1ncnc2c1ncn2[C@@H]1O[C@H](COP(=O)(O)OP(=O)(O)OP(=O)(O)O)[C@@H](O)[C@H]1O; test: purified protein, by the assay type; settings: other: 68 °C, 10 min, 9-mer^FL peptide (30 µM), triplicates, SD

RRYC^FluoresceinKSTEL [9-mer^FL, fluorescein labeled 9-mer peptide]
Km ([1]; read-out: Km(Pep) of 9-mer transport with GTP, 3 mM GTP, proteoliposomes, triplicates, SD): 4.4 ± 0.8 µM

Nc1ncnc2c1ncn2[C@@H]1O[C@H](COP(=O)(O)OP(=O)(O)OP(=O)(O)O)[C@@H](O)[C@H]1O [ATP]
fold turnover number of peptide transport, ATP over GTP ([2]; ATP vs GTP, 9-mer peptide (100 µM)): 6 fold | nucleotide hydrolysis by Pdr5 (in words) ([3]; GTP, UTP, ATP): highest efficiency

Clc1ccccc1C(c1ccccc1)(c1ccccc1)n1ccnc1 [clotrimazole]
effect on Pdr5 ATPase activity (in words) ([3]; ATP hydrolysis): inhibited | effect on Pdr5 GTP and UTP hydrolysis (in words) ([3]; GTP and UTP hydrolysis): not affected

[O]=[V]([O-])([O-])[O-] [ortho-vanadate]
inhibition of ATP dependent peptide translocation (in words) ([1]; ortho-vanadate 500 µM, 3 mM ATP, 10 µM 9-mer^FL): specifically inhibited | effect on basal ATP hydrolysis (in words) ([4]; 3 mM ATP, 15 min, 37 °C, malachite green, peptide up to 100 µM or ortho-vanadate 500 µM): blocked | effect on GTP hydrolysis (in words) ([4]; 3 mM GTP, 15 min, 37 °C, malachite green, 9-mer peptide 100 µM or ortho-vanadate 500 µM): inhibited | inhibition of GTP dependent peptide transport (in words) ([2]; ortho-vanadate 500 µM, 3 mM GTP, 10 µM 9-mer^FL, 15 min): inhibited

TmrAB (Thermus thermophilus HB27)
Km ([5]; radioactive assay): 617 ± 144 µM | kcat ([5]; radioactive assay): 2.47 ± 0.2 s⁻¹ | Km ([5]; pH 7.5): 391 ± 136 µM | kcat ([5]; pH 7.5): 0.0167 ± 0.00167 s⁻¹ | Km ([6]; radioactive assay): 661 ± 176 µM | kcat ([6]; radioactive assay): 2.25 ± 0.217 s⁻¹ | Km ([6]; pH 7.5): 782 ± 213 µM | kcat ([6]; pH 7.5): 0.105 ± 0.01 s⁻¹

CC(C)C[C@H](NC(=O)[C@H](CCC(=O)O)NC(=O)[C@@H](NC(=O)[C@H](CO)NC(=O)[C@H](CCCCNC(=O)[C@H](CCCCN)NC(=O)[C@H](CCCCN)NC(=O)[C@H](CCCCN)NC(=O)[C@H](CCCCN)NC(=O)[C@H](CCCCN)NC(=O)[C@H](CCCCN)NC(=O)[C@H](CCCCN)NC(=O)[C@@H](N)CCCCN)NC(=O)[C@H](CS)NC(=O)[C@H](Cc1ccc(O)cc1)NC(=O)[C@@H](N)CCCNC(=N)N)[C@@H](C)O)C(=O)O [16-mer, RYCK(K8)STEL] (I: H-KKKKKKKK / II: H-RYCKSTEL-OH; amide I:C-II:4; N-terminus assumed)
kcat(Pep) turnover number of peptide transport ([1]; proteoliposomes, 3 mM ATP, pH 7.5, fluorescein labeled (FL) peptides used, triplicates, SD, listed as 16-mer^FL): 0.00417 s⁻¹ | ATP per translocated peptide ([4]; ATP hydrolysis at saturating peptide divided by peptide transport turnover): 100 ATP per translocated peptide | Hill slope of ATP hydrolysis inhibition ([4]; proteoliposomes, 3 mM ATP, 15 min, 37 °C, malachite green, unlabeled peptides): −2.09 ± 0.73 | kcat(ATP) rate constant of ATP hydrolysis ([4]; under saturating peptide concentration, 3 mM ATP, 15 min, 37 °C, malachite green, unlabeled peptides): 0.367 ± 0.067 s⁻¹

RRYQKSTELRRYQKSTEL [18-mer]
reduction of ATP hydrolysis ([4]; 100 µM peptide, 3 mM ATP, 15 min, 37 °C, vs absence of peptide): 50%
